US8273771B2, “Ischemic disorder or disease inhibitors” (Pronas Pharma AB, priority 2007, dated 2012)

Assays:
rats with induced SAH = experiment: Cortical blood flow measured with Laser Doppler; type: in vivo, rat; conditions: intracisternal injection
Text: Subarachnoid hemorrhage was induced by a model originally devised by Svendgaard et al and carefully described by Prunell et al (2003). Male Sprague-Dawley rats (350-400 g) were anaesthetized using 5% halothane (Halocarbon Laboratories, River Edge, N.J.) in N2O/O2 (30:70). The rat was intubated and artificially ventilated with inhalation of 0.5-1.5% halothane in N2O/O2 (70:30) during the surgical procedure. The depth of anaesthesia was carefully monitored and the respiration checked by regularly withdrawing arterial blood samples for blood gas analysis (Radiometer, Copenhagen, Denmark). An electric temperature probe was inserted into the rectum of the rat to record the temperature, which was maintained at 37° C. An arterial catheter to measure blood pressure was placed in the tail artery and a catheter to monitor intracranial pressure (ICP) was placed in the subarachnoid space under the subocciptal membrane. At either side of the skull, 3 mm from the midline and 4 mm anteriorly from the bregma, holes were drilled through the skull bone down to dura mater (without perforation) allowing the placement of two laser-Doppler flow probes to measure cortical CBF. Finally, a 27G blunt canula with side hole was introduced 6.5 mm anterior to bregma in the midline at an angle of 30° to the vertical. […]

[1] = tested on: MCA from rats with induced SAH; experiment: Myograph contractile response to Ang II (via AT1) in cerebral arteries of treated SAH rats; type: in vivo, rat; conditions: in presence of PD123319, compared to SAH rats, no significant difference to sham
Protocol: The brains were quickly removed and chilled in ice-cold bicarbonate buffer solution (see composition below). Under a dissection microscope, the middle cerebral artery (MCA), the basilar artery (BA) and circle of Willis were carefully dissected free from the brain and cleared of connective tissue. The MCA and BA were immediately mounted in myographs for in vitro pharmacology or snap frozen at -80° C. and examined by real-time PCR. […] Measurements were recorded on a computer by use of a PowerLab unit (ADInstruments). […] The contractile capacity was determined by exposing the vessels to an isotonic solution containing 63.5 mM of K+, obtained by partial change of NaCl for KCl in the above buffer. […] Data are expressed as mean±standard error of the mean (s.e.m.), and n refers to the number of rats. […] In vitro Pharmacology Contractile responses in each segment are expressed as percentage of the 63.5 mM K+ induced contraction. […]

Row | SMILES | effect of injection alone on cortical blood flow measured with Laser Doppler (rats with induced SAH) | Ang II induced contractile response [1]
1 | Cn1cc(C2=C(c3cn(CCCN)c4ccccc34)C(=O)NC2=O)c2ccccc21 [RO-31-7549] | no effect | 
2 | Oc1cc(-c2nc(-c3ccccc3)[nH]c2-c2ccncc2)ccc1Cl [SB386023-b] |  | significantly attenuated
